pEC50, pIC50: −log10 of the molar value.
How the values were obtained:
recombinant human COMT = target: T1, recombinant human COMT (Homo sapiens, UniProt P21964); experiment: Human COMT inhibitory potency; assay type: biochemical; conditions: catechol substrate, [3H]-S-adenosyl-L-methionine, 37° C. 30 minutes
T1 construct: GST (N, cleaved yes); made in house; host or cells: E. coli BL21 (DE3) Codon Plus RP, pGEX-2T vector
T1 sequence (P21964 with tags, fused parts or gaps): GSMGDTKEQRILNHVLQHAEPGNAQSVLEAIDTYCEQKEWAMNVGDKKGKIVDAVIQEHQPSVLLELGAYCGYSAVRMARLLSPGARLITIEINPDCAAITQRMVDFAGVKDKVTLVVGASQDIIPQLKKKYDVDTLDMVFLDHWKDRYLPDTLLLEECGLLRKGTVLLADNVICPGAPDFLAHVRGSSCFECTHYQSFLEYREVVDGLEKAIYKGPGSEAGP

[1] = system: rat cryopreserved hepatocytes; experiment: Rat hepatocyte toxicities (cell viability, ATP activity); assay type: cell-based; conditions: concentration that shows 50% of the number of viable cells of control, 4 hours at 37° C.
Rat brain COMT = experiment: Inhibition of rat brain COMT activity after oral administration; conditions: 10 mg/kg oral, percentage of Control sample (100%); for Brain (COMT activity %) 1 hour: 1 hour after administration; for Brain (COMT activity %) 5 hours: 5 hours after administration
Rat liver COMT = experiment: Inhibition of rat liver COMT activity after oral administration; conditions: 10 mg/kg oral, percentage of Control sample (100%); for Liver (COMT activity %) 1 hour: 1 hour after administration; for Liver (COMT activity %) 5 hours: 5 hours after administration
[2] = system: unilateral 6-hydroxydopamine-lesioned hemi-parkinsonian rats; experiment: Potentiation of the efficacy of L-dopa in unilateral 6-hydroxydopamine-lesioned hemi-parkinsonian rats (turning behavior); assay type: in vivo, rat; conditions: 10 mg/kg oral with 5 mg/kg L-dopa and 30 mg/kg carbidopa; for Duration: duration of contralateral rotation response; for Total counts: summed contralateral rotation counts during drug action

pIC50 (recombinant human COMT) | SMILES | pEC50 [1] | also measured
8.01 | Cc1ccc(C(=O)c2c(C#N)cc(O)c(O)c2[N+](=O)[O-])cc1 [Compound 1-27] | < 3.52 | –
8.09 | CCOC(=O)c1cc(O)c(O)c([N+](=O)[O-])c1C(=O)C(F)(F)F [Compound 1-23] | – | –
8.11 | CCOC(=O)c1cc(O)c(O)c([N+](=O)[O-])c1C(=O)c1ccccc1 [Compound 1-1, Ethyl 2-benzoyl-4,5-dihydroxy-3-nitrobenzoate] | 3.58 | Brain (COMT activity %) 1 hour (Rat brain COMT): 8.9%; Brain (COMT activity %) 5 hours (Rat brain COMT): 56.2%; Liver (COMT activity %) 1 hour (Rat liver COMT): 0.6%; Liver (COMT activity %) 5 hours (Rat liver COMT): 9.0%; Duration [2]: 522.5 min; Total counts [2]: 3188.3
– | N#Cc1cc(O)c(O)c([N+](=O)[O-])c1C(=O)N1CCCCC1 [Compound 1-43] | < 3.52 | –
8.08 | CCOC(=O)c1cc(O)c(O)c([N+](=O)[O-])c1C(=O)c1cccs1 [Compound 1-13] | < 3.52 | Brain (COMT activity %) 1 hour (Rat brain COMT): 14.8%; Brain (COMT activity %) 5 hours (Rat brain COMT): 61.0%; Liver (COMT activity %) 1 hour (Rat liver COMT): 6.6%; Liver (COMT activity %) 5 hours (Rat liver COMT): 15.3%; Duration [2]: 461.4 min; Total counts [2]: 3395.7
8.08 | COC(=O)c1ccc(C(=O)c2c(C(=O)OC(C)C)cc(O)c(O)c2[N+](=O)[O-])cc1 [Compound 1-8] | – | –
8.33 | CCOC(=O)c1cc(O)c(O)c([N+](=O)[O-])c1C(=O)c1nccs1 [Compound 1-18] | – | –
7.27 | O=C(c1ccccc1)c1cc(O)c(O)c([N+](=O)[O-])c1C(=O)c1ccccc1 [compound 2, (6-benzoyl-3,4-dihydroxy-2-nitrophenyl)phenylmethanone, reference compound] | – | –
8.17 | N#Cc1cc(O)c(O)c([N+](=O)[O-])c1C(=O)c1ccccc1F [Compound 1-29, 2-(2-fluorobenzoyl)-4,5-dihydroxy-3-nitrobenzonitrile] | – | –
8.15 | CC(C)OC(=O)c1cc(O)c(O)c([N+](=O)[O-])c1C(=O)c1ccccc1C#N [Compound 1-9] | – | –
8.07 | N#Cc1cc(O)c(O)c([N+](=O)[O-])c1C(=O)c1ccno1 [Compound 1-37] | – | –
8.07 | Cc1cc(C(=O)c2c(C#N)cc(O)c(O)c2[N+](=O)[O-])no1 [Compound 1-38] | < 3.52 | –
8.09 | N#Cc1cc(O)c(O)c([N+](=O)[O-])c1C(=O)C1CCCCC1 [Compound 1-34] | < 3.52 | Brain (COMT activity %) 1 hour (Rat brain COMT): 62.2%; Brain (COMT activity %) 5 hours (Rat brain COMT): 78.7%; Liver (COMT activity %) 1 hour (Rat liver COMT): 0.0%; Liver (COMT activity %) 5 hours (Rat liver COMT): 1.0%
8.05 | COC(=O)c1cc(O)c(O)c([N+](=O)[O-])c1C(=O)c1ccccc1 [Compound 1-2] | < 3.52 | Duration [2]: 452.9 min; Total counts [2]: 3569.0
5.93 | CCOC(=O)Oc1cc(C(=O)c2ccccc2)c(C(=O)c2ccccc2)c([N+](=O)[O-])c1OC(=O)OCC [compound 3, carbonic acid 4,5-dibenzoyl-2-ethoxycarbonyloxy-3-nitro-phenyl ester ethy ester, reference compound] | – | –
8.40 | CC(=O)c1ccc(C(=O)c2c(C(=O)OC(C)C)cc(O)c(O)c2[N+](=O)[O-])cc1 [Compound 1-7] | – | –
7.39 | O=C(c1ccccc1)c1ccc(O)c(O)c1[N+](=O)[O-] [compound 1, (3,4-dihydroxy-2-nitrophenyl)phenymethanone, reference compound] | – | –
8.02 | COC(=O)c1cc(O)c(O)c([N+](=O)[O-])c1C(C)=O [Compound 1-20] | < 3.52 | –
8.15 | CCOC(=O)c1cc(O)c(O)c([N+](=O)[O-])c1C(=O)c1ccno1 [Compound 1-15] | – | –
– | Cc1ccc(C(=O)c2cc(O)c(O)c([N+](=O)[O-])c2)cc1 [Tolcapone, 3,4-dihydroxy-4′-methyl-5-nitro-benzophenone, reference compound] | – | Liver (COMT activity %) 1 hour (Rat liver COMT): 2.5%; Liver (COMT activity %) 5 hours (Rat liver COMT): 30.0%; Duration [2]: 430.0 min; Total counts [2]: 2578.7
